Measured values taken from US20110251135A1, “INHIBITORS OF PERITONEAL SEEDING OF CANCER CELLS” (University of Utah Research Foundation, priority 2008, published 2011).

Assays:
[1] = tested on: pancreatic (Su.86, PL-45) and colon cancer cells (HT-29); experiment: Cleaved PARP western blot during readhesion; type: cell-based, human; details: 10-20 μM BAY 11-7085; 8 hours
Experimental: FIG. 10 is a graph showing that BAY 11-7085 induces apoptosis of pancreatic and colon cancer cells during readhesion. Pancreatic (Su.86, PL-45) and colon cancer cells (HT-29) were transiently suspended and allowed to readhere in the presence or absence of vehicle or various concentrations of BAY 11-7085 for 8 hours. The floating and adherent cells were collected and lysed. Western blots for cleaved PARP were performed to determine if the cells were undergoing apoptosis (FIG. 10A). Transiently suspended pancreatic cancer cells ([…] per well) were allowed to readhere in the presence of vehicle or various concentrations of BAY 11-7085 for 24 hours. Nonadherent apoptotic cells were washed away and the remaining adherent cells stained with crystal violet and then dried. The crystal violet stained cells were lysed and the absorbance read in a plate spectrophotometer (FIG. 10B). […] The results are expressed as a percentage of cells surviving compared with vehicle alone.
BxPc-3, PL-45, Su.86.86 and HT-29 cells were transiently suspended and treated in vitro with varying concentrations of BAY 11-7085 or DMSO for four to eight hours. […] The degree of apoptosis was determined by western blotting for cleaved PARP.

JNK/SAPK and p38 = details: Pierce et al., J Biol Chem 272:21096-103, 1997; cited from earlier work
[2] = tested on: transiently suspended DLD-1 cells; experiment: Apoptosis of transiently suspended cells during readhesion (annexin V assay); type: cell-based, human; details: DLD-1 transiently suspended, treated and allowed to readhere; 8 hours
Experimental: (§1) The transiently suspended cells were lysed and allowed to bind to DNA oligonucleotides, containing the NF-κB consensus binding site, that were immobilized to 96-well plates. NF-κB protein bound to the oligonucleotides was detected by an antibody to the p65 subunit that only recognized p65 that is bound to DNA. The positive control was HeLa cells that were stimulated with TNFα. A control was performed using excess free NF-κB oligonucleotides (Competitor). […] NF-κB binding activity was determined by the TransAM assay as in FIG. 5A. […] The data shown represent typical results of three separate experiments. […] An immunoblot for COX-2 was performed.
(§2) Single cell suspensions were plated at 100,000 cells per well in 24-well plates in media containing DMSO, BAY 11-7082, BAY 11-7085, or MG-132 for 8-24 hours in an incubator. Alternatively, DMSO, BAY 11-7082, BAY 11-7085, or MG-132 were added to cells that were confluent and adherent for several days. The nonadherent cells were aspirated off with the media and spun for 3 minutes at 2,000 rpm in 15 mL polypropylene tubes. […] 400 μL of binding buffer was added to each tube and the cells were analyzed by flow cytometry immediately. The percent of apoptosis was determined as the percent of annexin V-positive, propidium iodide-negative cells of the total cells counted. […]

[3] = tested on: transiently suspended HCT-116 cells; experiment: as above; type: cell-based, human; details: HCT-116 transiently suspended, treated and allowed to readhere; 8 hours
Experimental: as §1, §2

HCT-116 cells = experiment: Soft agar colony formation assay; type: cell-based, human; details: 10 μM for 6 days
Experimental: (§3) DLD-1, HCT-116, and HT-29 cells were cultured for 6 days in soft agar in the presence of DMSO (control), 10 μM BAY 11-7082, or 10 μM BAY 11-7085. The data points represent the means of colony counts per field (20×) performed in 5 different regions of the culture dishes. The data shown represent a typical result of two separate experiments. FIG. 2B and FIG. 2C are graphs that show athymic mice received subcutaneous injections of HT-29 (FIG. B) or HCT-116 (FIG. C) cells, followed by […] of BAY 11-7085 (dark bars) or DMSO (white bars) intraperitoneally twice weekly. The bars represent the 25-75% ranges of the tumor volumes and the horizontal lines in the bars are the medians. Using the Kruskal-Wallace statistical test to compare the median tumor volumes between BAY 11-7085 and DMSO yielded a p-value of 0.005 for HT-29 cells but >0.05 for HCT-116 cells.
(§4) Anchorage-independent cell growth is a hallmark of cancer cells and is a good correlation to tumorigencity in vivo. Therefore, the effects of BAY 11-7082 and BAY 11-7085 were examined on colon cancer cell growth using the soft agar colony formation assay.

DLD-1 cells = experiment: Soft agar colony formation assay; type: cell-based, human; details: 10 μM for 6 days
Experimental: as §3, §4

HT-29 cells = experiment: Soft agar colony formation assay; type: cell-based, human; details: 10 μM for 6 days
Experimental: as §3, §4

[4] = tested on: HCT-116 cells transfected with human c-FLIP or empty vector; experiment: Annexin V-FITC assay, readhesion of HCT-116 cells transfected with human c-FLIP or empty vector; type: cell-based; details: readhesion 8 hours
Experimental: Since HCT-116 colon cancer cells have relatively low levels of FLIP compared with other cancer cell lines (FIG. 13A), they were transfected with human c-FLIP. HCT-116 cells that were transfected with human c-FLIP or empty vector were transiently suspended and allowed to readhere in the presence of BAY 11-7085 for 8 hours. […] Thus, FLIP appears to be an important target of BAY 11-7085 and is able to inhibit BAY 11-7085-mediated apoptosis during colon cancer cell readhesion.

CC(C)(C)c1ccc(S(=O)(=O)/C=C/C#N)cc1 [BAY 11-7085, (2E)-3-[4-(tertiarybutylphenyl)sulfonyl]-2-propenenitrile]
apoptosis (cleaved PARP levels) during cell readhesion [1]: increased apoptosis (cleaved PARP levels)
activation of JNK/SAPK and p38 (JNK/SAPK and p38): activate JNK/SAPK and p38
BAY 11-7085-induced apoptosis during readhesion [2]: showed the same propensity for BAY 11-7085-induced apoptosis
BAY 11-7085-induced apoptosis during readhesion [3]: HCT-116 cells did not
anchorage-independent proliferation (HCT-116 cells): but not HCT-116
anchorage-independent proliferation (DLD-1 cells): significantly inhibited
anchorage-independent proliferation (HT-29 cells): significantly inhibited
apoptosis (Annexin V-FITC assay) ([4]; HCT-116 over-expressing FLIP): much more resistant to BAY 11-7085
apoptosis (Annexin V-FITC assay) ([4]; control (empty vector) HCT-116): induced apoptosis
